Peptide text beside a SMILES is read from it.
Key:
[1] = target: T1, CREB-binding protein (Homo sapiens, UniProt Q92793); test: Competitive binding affinity to partial length human CREBBP expressed in Escherichia coli BL21 at 50 uM after 1 hr by BROMOscan assay relative to control
Target sequence in this assay (Q92793 2-2442 limits assumed): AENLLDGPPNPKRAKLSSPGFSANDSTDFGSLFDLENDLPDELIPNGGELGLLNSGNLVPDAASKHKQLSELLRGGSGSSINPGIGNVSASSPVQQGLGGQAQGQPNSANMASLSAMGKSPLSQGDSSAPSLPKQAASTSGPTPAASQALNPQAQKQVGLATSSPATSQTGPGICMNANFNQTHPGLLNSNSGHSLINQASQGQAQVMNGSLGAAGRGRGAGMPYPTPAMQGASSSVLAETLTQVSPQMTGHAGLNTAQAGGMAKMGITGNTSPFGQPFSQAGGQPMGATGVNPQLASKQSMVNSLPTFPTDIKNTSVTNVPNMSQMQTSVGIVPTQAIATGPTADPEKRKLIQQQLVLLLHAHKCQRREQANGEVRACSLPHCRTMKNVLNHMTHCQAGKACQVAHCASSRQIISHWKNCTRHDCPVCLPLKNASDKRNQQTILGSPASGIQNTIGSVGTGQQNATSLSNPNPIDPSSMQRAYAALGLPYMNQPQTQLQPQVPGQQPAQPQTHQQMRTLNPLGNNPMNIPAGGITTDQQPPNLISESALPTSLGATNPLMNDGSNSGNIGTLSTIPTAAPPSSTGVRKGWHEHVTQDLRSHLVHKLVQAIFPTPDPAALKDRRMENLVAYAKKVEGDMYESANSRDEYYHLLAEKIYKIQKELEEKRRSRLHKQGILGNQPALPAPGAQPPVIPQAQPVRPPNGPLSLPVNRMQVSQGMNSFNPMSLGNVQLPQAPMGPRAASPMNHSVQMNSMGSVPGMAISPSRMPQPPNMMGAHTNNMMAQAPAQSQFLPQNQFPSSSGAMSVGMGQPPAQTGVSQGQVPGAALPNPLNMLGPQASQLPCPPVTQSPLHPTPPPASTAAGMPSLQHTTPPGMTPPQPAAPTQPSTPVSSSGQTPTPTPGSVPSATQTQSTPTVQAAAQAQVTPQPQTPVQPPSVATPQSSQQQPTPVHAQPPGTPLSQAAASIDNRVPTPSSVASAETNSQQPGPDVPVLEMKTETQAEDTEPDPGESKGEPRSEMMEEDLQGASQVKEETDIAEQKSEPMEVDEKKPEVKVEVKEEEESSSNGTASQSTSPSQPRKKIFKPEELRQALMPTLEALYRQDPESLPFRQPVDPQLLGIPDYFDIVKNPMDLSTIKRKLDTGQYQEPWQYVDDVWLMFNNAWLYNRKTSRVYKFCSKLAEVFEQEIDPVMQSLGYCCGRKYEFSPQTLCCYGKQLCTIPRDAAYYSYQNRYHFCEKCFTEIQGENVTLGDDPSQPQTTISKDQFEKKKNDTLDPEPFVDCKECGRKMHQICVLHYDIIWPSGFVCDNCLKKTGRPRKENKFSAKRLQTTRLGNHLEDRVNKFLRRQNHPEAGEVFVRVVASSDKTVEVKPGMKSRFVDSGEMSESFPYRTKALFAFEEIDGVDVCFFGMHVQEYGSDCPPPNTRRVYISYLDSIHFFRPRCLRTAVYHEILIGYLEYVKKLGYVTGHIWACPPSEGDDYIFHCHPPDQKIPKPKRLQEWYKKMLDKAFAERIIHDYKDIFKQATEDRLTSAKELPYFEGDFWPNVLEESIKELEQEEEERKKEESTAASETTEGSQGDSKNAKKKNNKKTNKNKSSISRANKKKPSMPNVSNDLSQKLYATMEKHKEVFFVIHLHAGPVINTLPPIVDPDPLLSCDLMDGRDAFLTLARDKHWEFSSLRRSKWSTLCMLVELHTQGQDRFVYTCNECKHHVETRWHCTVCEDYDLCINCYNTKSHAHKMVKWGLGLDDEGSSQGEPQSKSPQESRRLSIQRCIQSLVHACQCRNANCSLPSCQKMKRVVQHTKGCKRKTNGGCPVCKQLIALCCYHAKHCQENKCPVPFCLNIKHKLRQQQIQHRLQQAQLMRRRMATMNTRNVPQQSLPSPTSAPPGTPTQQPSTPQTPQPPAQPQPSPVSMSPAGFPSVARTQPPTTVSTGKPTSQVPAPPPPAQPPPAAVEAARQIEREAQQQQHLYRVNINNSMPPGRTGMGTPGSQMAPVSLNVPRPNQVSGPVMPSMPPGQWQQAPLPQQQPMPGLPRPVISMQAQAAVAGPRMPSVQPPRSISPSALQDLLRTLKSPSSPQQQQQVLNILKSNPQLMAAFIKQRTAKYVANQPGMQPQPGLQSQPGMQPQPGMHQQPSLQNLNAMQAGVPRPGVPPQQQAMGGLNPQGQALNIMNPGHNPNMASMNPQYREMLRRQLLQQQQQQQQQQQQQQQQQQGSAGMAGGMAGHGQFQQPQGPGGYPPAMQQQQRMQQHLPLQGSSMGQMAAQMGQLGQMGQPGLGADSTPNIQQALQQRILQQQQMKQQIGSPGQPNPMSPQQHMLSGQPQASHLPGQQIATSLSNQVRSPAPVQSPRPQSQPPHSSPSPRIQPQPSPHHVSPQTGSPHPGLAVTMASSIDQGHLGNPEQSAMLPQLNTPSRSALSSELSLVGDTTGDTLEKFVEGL

[2] = target: T1, CREB-binding protein; test: Binding affinity to human CREBBP at 100 uM by thermal shift assay
Target sequence in this assay (Q92793 2-2442 limits assumed): as above

[3] = target: T1, CREB-binding protein; test: Binding affinity to CREBBP (unknown origin) by fluorescence polarization assay
Target sequence in this assay (Q92793 whole entry): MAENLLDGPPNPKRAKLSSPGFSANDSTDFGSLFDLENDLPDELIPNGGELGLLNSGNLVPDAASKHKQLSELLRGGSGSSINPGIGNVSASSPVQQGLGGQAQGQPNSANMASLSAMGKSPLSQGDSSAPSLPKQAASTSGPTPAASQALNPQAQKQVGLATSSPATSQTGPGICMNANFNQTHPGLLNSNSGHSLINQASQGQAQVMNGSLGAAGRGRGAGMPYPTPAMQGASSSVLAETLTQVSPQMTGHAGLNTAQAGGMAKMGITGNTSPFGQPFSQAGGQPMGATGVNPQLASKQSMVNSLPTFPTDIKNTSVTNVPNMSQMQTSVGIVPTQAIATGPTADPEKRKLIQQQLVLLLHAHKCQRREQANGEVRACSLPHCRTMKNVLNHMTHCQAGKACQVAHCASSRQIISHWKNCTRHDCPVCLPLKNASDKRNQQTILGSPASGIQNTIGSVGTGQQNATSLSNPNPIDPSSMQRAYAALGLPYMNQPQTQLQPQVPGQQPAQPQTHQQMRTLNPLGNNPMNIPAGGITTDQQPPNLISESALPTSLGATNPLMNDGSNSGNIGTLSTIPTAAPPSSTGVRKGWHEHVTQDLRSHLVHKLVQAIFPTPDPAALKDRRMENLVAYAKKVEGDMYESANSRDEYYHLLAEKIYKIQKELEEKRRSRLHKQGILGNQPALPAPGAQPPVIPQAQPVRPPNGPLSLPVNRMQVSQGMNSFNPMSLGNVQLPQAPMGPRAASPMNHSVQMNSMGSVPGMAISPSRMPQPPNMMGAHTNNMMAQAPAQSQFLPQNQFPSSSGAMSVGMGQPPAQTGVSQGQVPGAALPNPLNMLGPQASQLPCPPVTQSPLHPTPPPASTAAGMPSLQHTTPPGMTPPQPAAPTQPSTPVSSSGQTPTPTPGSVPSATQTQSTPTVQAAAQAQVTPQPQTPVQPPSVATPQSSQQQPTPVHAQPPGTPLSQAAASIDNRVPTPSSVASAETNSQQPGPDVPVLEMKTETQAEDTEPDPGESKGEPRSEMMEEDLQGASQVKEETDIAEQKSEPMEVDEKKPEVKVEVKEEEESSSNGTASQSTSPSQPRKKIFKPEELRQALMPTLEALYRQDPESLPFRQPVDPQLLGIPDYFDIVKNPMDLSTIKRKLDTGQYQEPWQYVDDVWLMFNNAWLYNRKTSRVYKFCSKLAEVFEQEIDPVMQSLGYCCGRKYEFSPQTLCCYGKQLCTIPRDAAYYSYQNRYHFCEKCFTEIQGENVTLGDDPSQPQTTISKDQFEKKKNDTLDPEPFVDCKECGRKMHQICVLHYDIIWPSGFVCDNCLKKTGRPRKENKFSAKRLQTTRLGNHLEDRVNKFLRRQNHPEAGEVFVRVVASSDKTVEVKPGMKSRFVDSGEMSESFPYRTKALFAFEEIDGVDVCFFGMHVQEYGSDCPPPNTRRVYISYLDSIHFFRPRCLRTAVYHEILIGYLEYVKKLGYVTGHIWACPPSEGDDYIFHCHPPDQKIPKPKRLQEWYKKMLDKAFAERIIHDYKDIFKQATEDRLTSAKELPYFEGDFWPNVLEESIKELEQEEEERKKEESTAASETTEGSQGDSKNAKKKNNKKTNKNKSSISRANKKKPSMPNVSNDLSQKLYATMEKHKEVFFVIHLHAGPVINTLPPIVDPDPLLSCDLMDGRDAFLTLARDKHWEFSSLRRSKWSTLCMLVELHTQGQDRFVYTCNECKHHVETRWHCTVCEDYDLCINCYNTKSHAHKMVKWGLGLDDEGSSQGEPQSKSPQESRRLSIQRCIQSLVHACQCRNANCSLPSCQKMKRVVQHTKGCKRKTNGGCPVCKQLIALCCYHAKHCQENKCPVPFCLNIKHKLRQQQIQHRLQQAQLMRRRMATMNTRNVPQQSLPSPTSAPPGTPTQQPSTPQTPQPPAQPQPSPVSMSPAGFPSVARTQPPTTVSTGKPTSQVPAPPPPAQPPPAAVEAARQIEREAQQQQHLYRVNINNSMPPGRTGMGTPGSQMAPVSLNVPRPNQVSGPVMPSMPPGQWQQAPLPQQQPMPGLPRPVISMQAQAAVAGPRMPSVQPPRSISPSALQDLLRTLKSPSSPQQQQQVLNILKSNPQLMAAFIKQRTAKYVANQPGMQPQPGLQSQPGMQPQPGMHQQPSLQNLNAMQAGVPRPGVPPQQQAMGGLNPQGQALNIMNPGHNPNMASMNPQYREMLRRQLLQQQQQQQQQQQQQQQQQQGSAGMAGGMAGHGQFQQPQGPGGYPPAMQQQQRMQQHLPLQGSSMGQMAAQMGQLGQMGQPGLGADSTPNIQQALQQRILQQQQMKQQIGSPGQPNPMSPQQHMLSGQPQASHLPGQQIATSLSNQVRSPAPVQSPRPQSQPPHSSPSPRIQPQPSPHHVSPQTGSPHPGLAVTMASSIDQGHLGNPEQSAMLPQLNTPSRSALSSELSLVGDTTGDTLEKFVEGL

[4] = target: T1, CREB-binding protein; test: Binding affinity to N-terminal GST-tagged recombinant human CREBBP expressed in Escherichia coli after 2 hrs using BET bromodomain ligand by TR-FRET assay
Target sequence in this assay (Q92793 whole entry): as above

[5] = target: T1, CREB-binding protein; test: Competitive binding affinity to partial length human CREBBP expressed in Escherichia coli BL21 after 1 hr by BROMOscan assay
Target sequence in this assay (Q92793 whole entry): as above

[6] = species: Homo sapiens; test: Selectivity ratio of Kd for BRD4 bromodomain 1 (unknown origin) to Kd for partial length human CREBBP expressed in Escherichia coli BL21

Structure (SMILES)	Activity [1] [%]	ΔTm [2] [°C]	IC50 [4] [µM]	further results
CCn1cnnc1CNC(=O)c1[nH]c(C)c(C(C)=O)c1C	5	1.3	–	–
CC(=O)NCCCC[C@@H]1NC(=O)[C@H](CCCCN)NC(=O)[C@H](Cc2c[nH]c3ccccc23)NC(=O)[C@@H](NC(C)=O)CSSC[C@@H](C(=O)N[C@@H](Cc2ccccc2)C(=O)N[C@@H](CCCCN)C(N)=O)NC(=O)[C@H](CC(C)C)NC1=O (HELM PEPTIDE1{[ac].C.W.K.K.L.C.F.K.[am]}|PEPTIDE2{[ac]}$PEPTIDE1,PEPTIDE2,5:R3-1:R2|PEPTIDE1,PEPTIDE1,2:R3-7:R3$$$V2.0)	–	–	–	IC50 [3]: 5 µM
CC(=O)c1c(C)[nH]c(C(=O)Nc2cc(C(=O)O)ccc2C)c1C	–	1.4	> 10	–
COC(=O)c1ccc(C)c(NC(=O)c2[nH]c(C)c(C(C)=O)c2C)c1	20	–	–	–
CC(=O)c1c(C)[nH]c(C(=O)Nc2cccc(C(=O)O)c2)c1C	–	2.3	1.5	Kd [5]: 4.2 µM
CCCc1c(C(=O)NCc2c(C)cc(C)[nH]c2=O)[nH]c(C)c1C(C)=O	3	0.3	–	–
CC(=O)c1c(C)[nH]c(C(=O)Nc2cc(-c3nnco3)ccc2C)c1C	9	0.3	> 100	Kd [5]: 13 µM
CCOc1ccc(C(C)=O)cc1NC(=O)c1cccc(C(=O)O)c1	–	–	–	Ratio [6]: > 65
